Results taken from patent publication US12318365B2, “Inhibition of dipeptide repeat proteins” (ALS Therapy Development Institute, priority 2019, dated 2025).
No end group written: not given here.

Experiments:
[1] = test system: asymmetrical arginine methylation of NSC-34 cells; assay: Cellular asymmetric arginine methylation (800/700 fluorescence readout) in NSC-34 cells; format: cell-based, Mouse
Experimental: On Day 0, NSC-34 Cells were plated in 48 wells of a 96 well plate, and CHO cells were plated in the other 48 wells of the same 96-well plate. NSC-34 cells were plated in DMEM/High glucose media. CHO cells were plated in Ham's F-12K (Kaighn's) Medium. Both cell lines were incubated overnight to reach approximately 50% confluency.
On Day 1, 24 wells of the NSC-34 cells and 24 wells of the CHO cells were treated with the following concentrations of MS023: 1 μM, 3 μM, 6 μM, 10 μM, 30 μM, and 60 μM. The cells were then incubated overnight.
On Day 2, 18 wells of the untreated NSC-34 cells and 18 wells of the untreated CHO cells were treated with the same concentrations of MS023 as those on Day 1. This left 6 wells of each cell line that never received MS023. Once MS023 was added, the cells were incubated overnight.
On Day 3, all media in the 96-well plate was removed and the cells were fixed with 3.7% Paraformaldehyde (PFA). Cells were then washed and permeabilized with 1×PBS/0.1% Triton X-100.
After removing the PBS/Triton wash, Odyssey Blocking Buffer (LI-COR, 927-40100) was applied to all wells and the plate sat at room temperature with moderate shaking for 90 minutes. After 90 minutes, the blocking buffer was removed and the cells were treated with a 1:500 dilution of the Anti-Asymmetric Di-Methyl Arginine Motif primary antibody (Cell Signaling Technology, #13522). Incubation with the primary antibody continued overnight at 4 degrees Celsius with no shaking.
On Day 4, the primary antibody solution was removed from the plate, and the cells were washed with 1×PBS/0.1% Tween 20. After washing, cells were given a secondary antibody mixture containing a 1:1000 dilution of IRDye 800 CW Anti-Rabbit antibody (LI-COR, 926-32211) and a 1:500 dilution of Cell Tag 700 Stain (LI-COR, 926-41090). The secondary antibody mixture remained on cells for 60 minutes with gentle shaking and protected from light.
(§1) After 60 minutes, the secondary antibody mixture was removed and the cells were again washed with 1×PBS/0.1% Tween 20. All wash buffer was then removed, and the plate was gently patted dry to remove excess solution. The plate was then read on the LI-COR Odyssey Classic Imaging System which provides results based on fluorescence. In this experiment, fluorescence occurred as a result of cellular, asymmetric arginine methylation. MS023 was given to cells for either 24 or 48 hours, with expectation for it to reduce cellular, asymmetric arginine methylation. Cell number per well was accounted for using the Cell Tag 700 Stain, which fluorescently labels total protein levels in a cell. To this effect, fluorescence from asymmetrical arginine methylation per well (800) was divided by fluorescence from the total protein level per well (700) to produce an outcome of 800/700.
On Day 1, 24 wells of the NSC-34 cells and 24 wells of the CHO cells were treated with the following concentrations of MS049: 0.2 μM, 1 μM, 2 μM, 10 μM, 20 μM, and 100 μM. The cells were then incubated overnight.
On Day 2, 18 wells of the untreated NSC-34 cells and 18 wells of the untreated CHO cells were treated with the same concentrations of MS049 as those on Day 1. This left 6 wells of each cell line that never received MS049. Once MS049 was added, the cells were incubated overnight.
as §1, with “MS049” for “MS023”, “To this effect, fluorescence from asymmetrical arginine methylation per well (800) was divided by fluorescence from the total protein level per well (700) to produce an outcome of 800/700.” left out

[2] = molecular target: T1, Recombinant PRMT1 protein (Homo sapiens, UniProt Q99873); assay: In-vitro arginine methylation assay with recombinant PRMT1 and SAM; format: biochemical; conditions: 37 degrees Celsius, 2 hours, no methylation without PRMT1 or SAM
T1 construct: purchased Active Motif 31411
Experimental: To assess interaction between PRMT1 and GR15, (SEQ ID NO: 1) an in-vitro methylation assay system was developed. This system consists of a mixture of recombinant PRMT1 enzyme, S-(5′-Adenosyl)-L-methionine iodide, (SAM) as a methyl donor, and potential substrate of PRMT1 activity. For this experiment, 11 tubes were prepared, each containing various amount of the following components; • Recombinant PRMT1 protein (Active Motif, Cat. 31411) • S-(5′-Adenosyl)-L-methionine iodide, (SAM) (Sigma-Aldrich Cat. A4377) • GR15(SEQ ID NO: 1) • PR15(SEQ ID NO: 2) • SOD1 from human erythrocytes (S9636-1KU)
These constituents were mixed in a 0.5 ml flat-capped tubes (Thermo Fisher Scientific, AB0350) according to Table 4 (all values are in microliters (μl)).
Once all tubes were prepared, each tube was gently tapped to ensure mixture, and the tubes were placed in an incubator at 37 degrees Celsius for 2 hours. After 2 hours, the reaction mixture was stopped with the addition of 10 μl of NuPage LDS Sample Buffer (Thermo Fisher Scientific, NP0007). The tubes were gently tapped to ensure mixture, and then boiled for 5 minutes in a 95 degrees Celsius water bath. […]
The gel was then transferred using the iBlot apparatus and an iBlot 2 Nitrocellulose Mini Stack (Thermo Fisher Scientific, IB23002). […] Following wash steps, the membrane was read on the LI-COR Odyssey Classic Imaging System.

T1 sequence (Q99873 whole entry): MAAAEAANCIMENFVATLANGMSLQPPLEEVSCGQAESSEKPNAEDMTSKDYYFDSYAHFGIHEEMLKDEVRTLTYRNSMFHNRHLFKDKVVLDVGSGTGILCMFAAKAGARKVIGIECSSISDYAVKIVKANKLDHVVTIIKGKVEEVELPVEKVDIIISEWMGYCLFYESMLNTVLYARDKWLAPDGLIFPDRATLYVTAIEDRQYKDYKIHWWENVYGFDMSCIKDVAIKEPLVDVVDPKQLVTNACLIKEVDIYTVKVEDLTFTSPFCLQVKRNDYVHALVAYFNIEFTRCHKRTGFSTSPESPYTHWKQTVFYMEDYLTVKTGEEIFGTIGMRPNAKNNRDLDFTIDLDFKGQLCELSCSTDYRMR

| Molecule | decrease of asymmetrical arginine methylation ([1]; 24 hour treatment, 1 μM, vs untreated cells) | decrease of asymmetrical arginine methylation ([1]; 24 hour treatment, 60 μM) | decrease of asymmetrical arginine methylation ([1]; 48 hour treatment, 1 μM) | decrease of asymmetrical arginine methylation ([1]; 48 hour treatment, 60 μM) | asymmetric methylation of the peptide as substrate (anti-H4R3me2a detection) [2] |
| --- | --- | --- | --- | --- | --- |
| CC(C)Oc1ccc(-c2c[nH]cc2CN(C)CCN)cc1 [MS023] | approximately 13% | ~45% | ~33% | ~75% | – |
| GRGRGRGRGRGRGRGRGRGRGRGRGRGRGR [GR15] | – | – | – | – | is asymmetrically methylated by PRMT1 |
